The values that follow come from ChEMBL document CHEMBL5634188, “Expanding TPD Horizons: Innovative Strategies Targeting BCL6 and SMARCA2” (ACS Med Chem Lett, 2024).

The structures appear in SMILES notation.

Format in all cases: cell-based
The target of assay [1] is Protein cereblon/B-cell lymphoma 6 protein (Homo sapiens) (UniProt Q96SW2+P41182). Briefly: PROTAC activity at CRBN/N-terminal HiBiT tagged BCL6 in human HT-1080 cells assessed as induction of BCL6 degradation by measuring minimum efficacy incubated for 5 hrs by NANO-GLO HiBiT Lytic reagent based luminescence plate reader analysis.
Assay [2] has as its target T1, Protein cereblon/SWI/SNF-related matrix-associated actin-dependent regulator of chromatin subfamily A member 2 (Homo sapiens, UniProt P51531+Q96SW2). Briefly: PROTAC activity at CRBN/N-terminal HiBiT-tagged SMARCA2 in human A549 cells assessed as induction of SMARCA2 degradation incubated for 6 hrs by Nano-Glo HiBiT Lytic reagent based luminescence plate reader analysis.

The target in assay [3] is T1, Protein cereblon/SWI/SNF-related matrix-associated actin-dependent regulator of chromatin subfamily A member 2. Nature of the assay: PROTAC activity at CRBN/N-terminal HiBiT-tagged SMARCA2 in human A549 cells assessed as induction of SMARCA2 degradation by measuring maximal efficacy incubated for 6 hrs by Nano-Glo HiBiT Lytic reagent based luminescence plate reader analysis relative to control. On the technique in general: HiBiT is a short tag that completes a luciferase, so light tracks the accessible tagged protein.

Assay [4] concerns the target Protein cereblon/B-cell lymphoma 6 protein (Homo sapiens, UniProt P41182+Q96SW2). Briefly: PROTAC activity at CRBN/N-terminal HiBiT tagged BCL6 in human HT-1080 cells assessed as induction of BCL6 degradation incubated for 5 hrs by NANO-GLO HiBiT Lytic reagent based luminescence plate reader analysis.

Protein cereblon/B-cell lymphoma 6 protein (Homo sapiens), sequence (Q96SW2 whole entry, looked up, other chains not shown): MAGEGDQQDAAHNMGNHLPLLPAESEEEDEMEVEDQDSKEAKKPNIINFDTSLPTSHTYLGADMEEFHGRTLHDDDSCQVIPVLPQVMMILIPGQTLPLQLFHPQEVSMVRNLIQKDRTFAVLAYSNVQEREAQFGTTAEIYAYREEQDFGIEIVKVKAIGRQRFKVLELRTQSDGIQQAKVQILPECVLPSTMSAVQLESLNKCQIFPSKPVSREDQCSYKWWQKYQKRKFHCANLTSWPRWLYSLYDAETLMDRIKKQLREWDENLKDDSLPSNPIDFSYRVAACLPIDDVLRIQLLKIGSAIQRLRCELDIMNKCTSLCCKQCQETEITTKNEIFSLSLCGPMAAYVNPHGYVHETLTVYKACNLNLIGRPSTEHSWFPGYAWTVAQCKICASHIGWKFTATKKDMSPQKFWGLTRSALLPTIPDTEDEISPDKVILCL
T1 sequence (P51531 whole entry): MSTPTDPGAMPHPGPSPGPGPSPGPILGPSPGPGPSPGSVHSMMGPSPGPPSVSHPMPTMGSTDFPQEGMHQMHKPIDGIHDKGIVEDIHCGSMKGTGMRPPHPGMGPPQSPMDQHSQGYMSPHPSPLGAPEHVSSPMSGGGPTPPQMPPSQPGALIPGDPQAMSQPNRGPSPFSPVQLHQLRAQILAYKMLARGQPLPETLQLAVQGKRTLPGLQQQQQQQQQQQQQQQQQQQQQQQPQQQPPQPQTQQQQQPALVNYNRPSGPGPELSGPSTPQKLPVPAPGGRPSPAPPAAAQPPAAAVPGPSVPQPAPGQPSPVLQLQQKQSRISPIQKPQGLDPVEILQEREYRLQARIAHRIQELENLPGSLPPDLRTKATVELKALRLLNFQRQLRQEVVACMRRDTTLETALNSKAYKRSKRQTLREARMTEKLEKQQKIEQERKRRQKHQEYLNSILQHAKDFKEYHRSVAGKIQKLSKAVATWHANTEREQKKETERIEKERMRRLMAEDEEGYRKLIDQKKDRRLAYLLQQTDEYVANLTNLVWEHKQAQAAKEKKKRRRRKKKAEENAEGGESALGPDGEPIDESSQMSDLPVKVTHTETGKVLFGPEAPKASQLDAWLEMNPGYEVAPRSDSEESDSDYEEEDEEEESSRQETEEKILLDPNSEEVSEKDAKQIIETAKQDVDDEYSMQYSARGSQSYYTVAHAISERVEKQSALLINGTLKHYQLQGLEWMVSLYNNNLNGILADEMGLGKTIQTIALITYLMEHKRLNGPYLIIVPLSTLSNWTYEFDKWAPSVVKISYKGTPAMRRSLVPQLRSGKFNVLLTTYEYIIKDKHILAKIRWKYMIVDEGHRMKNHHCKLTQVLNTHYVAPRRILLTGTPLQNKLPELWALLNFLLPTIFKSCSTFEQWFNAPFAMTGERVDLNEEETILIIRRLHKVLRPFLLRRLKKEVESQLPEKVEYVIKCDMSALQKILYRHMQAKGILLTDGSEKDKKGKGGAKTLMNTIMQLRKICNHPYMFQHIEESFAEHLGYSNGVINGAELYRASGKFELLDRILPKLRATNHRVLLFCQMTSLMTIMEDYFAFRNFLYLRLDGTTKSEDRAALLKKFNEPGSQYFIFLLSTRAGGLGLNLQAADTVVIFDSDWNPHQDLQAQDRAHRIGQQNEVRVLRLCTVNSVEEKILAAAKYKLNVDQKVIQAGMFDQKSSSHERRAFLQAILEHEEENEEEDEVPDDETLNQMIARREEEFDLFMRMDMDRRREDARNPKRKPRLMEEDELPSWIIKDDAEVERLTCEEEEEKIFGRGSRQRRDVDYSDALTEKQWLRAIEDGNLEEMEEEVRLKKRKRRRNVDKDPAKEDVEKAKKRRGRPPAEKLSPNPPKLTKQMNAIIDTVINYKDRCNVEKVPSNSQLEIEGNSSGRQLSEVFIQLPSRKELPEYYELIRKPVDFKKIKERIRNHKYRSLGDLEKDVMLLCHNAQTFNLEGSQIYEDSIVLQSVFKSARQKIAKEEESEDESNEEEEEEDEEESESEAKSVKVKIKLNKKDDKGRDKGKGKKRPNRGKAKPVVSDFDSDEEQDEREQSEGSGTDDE
T1 sequence (Q96SW2 whole entry): as the sequence (Q96SW2 whole entry, looked up, other chains not shown) above
Protein cereblon/B-cell lymphoma 6 protein, sequence (Q96SW2 whole entry, looked up, other chains not shown): as above

For the compound `Cn1nc(C2CCC(=O)NC2=O)c2cccc(N3CCN(CC4CCN(c5ncc(Cl)c(Nc6ccc7c(c6)c6c(c(=O)n7C)OCC(F)(F)[C@H](C7CC7)N6)n5)CC4)CC3)c21` (stereo not given in full), in assay [1], the Emin is below 30%.

Usually DC50 stands for the concentration giving 50% degradation. For the compound `CN(c1cccc(N2CCC(O)(CC(=O)N3CCC(Oc4cccc(N5[C@@H]6COC[C@H]5CC(c5cc(-c7ccccc7O)nnc5N)C6)c4)CC3)CC2)c1)C1CCC(=O)NC1=O` (stereo not given in full), in assay [2], the DC50 was determined as 13.1 nM.

The term Emax denotes the maximal effect, on the per cent scale that the assay sets. With `Nc1nnc(-c2ccccc2O)cc1C1C[C@H]2COC[C@@H](C1)N2c1cccc(OC2CCN(C(=O)CC3(O)CCN(c4cccc5c4CCN5C4CCC(=O)NC4=O)CC3)CC2)c1` (stereo not given in full), in assay [3], the Emax was 22.9%. Besides, the DC50 in assay [2] is 5.8 nM.

With `Cn1c(=O)c2c(c3cc(Nc4nc(N5CCN(CC6CCN(c7cccc8c7C(=O)N(C7CCC(=O)NC7=O)C8=O)CC6)CC5)ncc4Cl)ccc31)N[C@@H](C1CC1)C(F)(F)CO2` (stereo not given in full), in assay [1], the Emin is below 30%.

By EC50 is commonly meant the concentration needed to bring the measured effect to its halfway point. Consider `C[C@H](C1CCN(c2ncc(Cl)c(Nc3ccc4c(c3)c3c(c(=O)n4C)OCC(F)(F)[C@H](C4CC4)N3)n2)CC1)C1CCN(c2cccc3c(C4CCC(=O)NC4=O)nn(C)c23)CC1` (stereo not given in full), for which the Emin in assay [1] was below 30%. Further, the EC50 in assay [4] is at most 25 nM.

For `Nc1nnc(-c2ccccc2O)cc1C1C[C@H]2COC[C@@H](C1)N2c1cccc(OC2CCN(C(=O)CCC3CN(c4cccc5c4CCN5[C@@H]4CCC(=O)NC4=O)C3)CC2)c1` (stereo not given in full), the DC50 in assay [2] turned out to be 13 nM.

`C[C@H]1CN(c2ncc(Cl)c(Nc3ccc4c(c3)c3c(c(=O)n4C)OCC(F)(F)[C@H](C4CC4)N3)n2)CCN1CC1CCN(c2cccc3c(C4CCC(=O)NC4=O)nn(C)c23)CC1` (stereo not given in full): in assay [1], the Emin was below 30%.

In the case of `CN(C(=O)N1CCC(Oc2cccc(N3[C@@H]4COC[C@H]3CC(c3cc(-c5ccccc5O)nnc3N)C4)c2)CC1)C1CCN(c2cccc3c2CCN3[C@@H]2CCC(=O)NC2=O)CC1` (stereo not given in full), in assay [2], the DC50 came out at 9.47 nM.
